Measurements: patent publication US8435586B2, “Use of alkoxylated flavones to intensify the sensory impression of alcohol” (Symrise AG, priority 2007, dated 2013)

Tested on: expert panel
Test: Tasting of ethanol and HMF-containing mixtures by an expert panel (5% sucrose solution)
Type: in vivo, human
Source text: The test matrix used was a 5% sucrose solution having alcohol contents of 4 and 10% by volume respectively. Added to each of the two sucrose solutions were • a) nothing, • b) 2 ppm of HMF87 from Example 1, • c) 2 ppm of HMF99 from Example 1, • d) 5 ppm of HMF87 from Example 1 and • e) 5 ppm of HMF99 from Example 1.
All of these solutions were tasted by an expert panel consisting of five experts in each case.

SMILES	difference between HMF87 and HMF99 in intensification of the alcohol impression (2 and 5 ppm, 4 and 10% by volume alcohol)	intensification of the alcohol impression compared with the samples without HMF (2 or 5 ppm of HMF87 or HMF99, 4 and 10% by volume alcohol, five experts)
COc1ccc(-c2oc3c(OC)c(OC)c(OC)c(OC)c3c(=O)c2OC)cc1OC [HMF99, 3,3′,4′,5,6,7,8-heptamethoxyflavone]	no significant difference	
COc1ccc(-c2oc3c(OC)c(OC)c(OC)c(OC)c3c(=O)c2OC)cc1OC [HMF, 3,3′,4′,5,6,7,8-heptamethoxyflavone]		highly significant intensification of the alcohol impression
